From patent publication US20210071180A1, “MICRORNA 584-5P COMPOSITIONS AND METHODS FOR TREATING CANCER” (BOARD OF REGENTS, THE UNIVERSY OF TEXAS SYSTEM, priority 2018, published 2021) come the findings set out here.

Holding throughout (format): cell-based
In one series the test system is c-Myc. In words: qPCR and Western blot of c-Myc. As to conditions: c-Myc-amplified MB cells. How it is done: (§1) Immunofluorescence and Western blot analysis Immunofluorescence analyses was carried out on cells fixed in 4% paraformaldehyde (Imam, J. S. et al. PLoS One 7, e52397, (2012)). […]
Because c-Myc supports cancer stem cell growth, promotes radioresistance (Gravina, G. L. et al. Radiat Res 185, 411-422, (2016)), and has elevated levels in VCR-resistant cancer cells (He, Y., Zhang, J., Zhang, J. & Yuan, Y. Chin Med J (Engl) 113, 848-851 (2000)), it was tested whether miR-584-5p and its target genes may regulate c-Myc-amplified MB growth and therapy sensitization by targeting c-Myc levels/functions. […] In FIG. 14D, the p-values were calculated using standard Student t-tests. […] To test that possibility, it was assessed whether miR-584-5p target genes may regulate c-Myc levels in MB. […] Cell viability was assessed using alamarBlue. The p-value was calculated using one-way ANOVA followed by Sidak's multiple-comparisons test. […]

In a further series the test system is MB cells. In words: Immunofluorescence count of mitotic cells. As to conditions: vs scrambled-transfected cells. The protocol: To gain more insight into the tumor-suppressing and VCR-sensitizing activities of miR-584-5p, it was determined how the miR-584-5p mimic affected cell cycle progression of MB cells. […] Bar graphs show DNA histograms quantified using the FlowJo software. In FIG. 9A, the p-values were determined by two-way ANOVA followed by Tukey's multiple-comparisons test. Error bars represent mean±SEM. […] In FIG. 9B, the p-values were calculated using standard Student t-tests. Error bars represent mean±SEM. […] Next, it was determined whether miR-584-5p's effect on cell cycle progression may be mediated via its target genes eIF4E3/HDAC1. […] Bar graphs show dot plots quantified using the FlowJo software. Next, it was tested whether miR-584-5p-induced cell cycle arrest led to apoptosis of MB cells. […] In FIG. 8C, the bar graphs reflect DNA histograms quantified using the FlowJo software and in FIG. 8D and FIG. 9C, the bar graphs show dot plots quantified using the FlowJo software. The p-values for panels 8A-D and FIG. 9C were determined by two-way ANOVA followed by Tukey's multiple-comparisons test. Error bars represent mean±SEM. ****, p<0.0001; ***, p<0.001; **, p<0.01; *, p<0.05.
as §1

The next series relates to HDAC1. In words: qPCR and Western blot of HDAC1 in MB cells. The note with it: transcript and protein levels, all cell lines tested. In general terms: In qPCR the cycle at which signal appears reflects the starting amount.
The test system of series [1] is D425Med and D458Med cells. In words: Gene expression profiling (Illumina HT-12 v4 BeadChip). The protocol:
Data are z-transformed. The cutoff criteria for each gene are fold change >2, sample intensity >10, and p-value <0.05. […] To validate the gene expression analysis and target prediction results, it was determined whether miR-584-5p reduced HDAC1/eIF4E3 expression by binding to their 3′-untranslated regions (3′-UTRs). […] Also shown are the portion of the miR-584-5p sequence (SEQ ID NO: 15; UAUGGUU) that binds to the wild-type 3′UTR and seed sequence mutant (SEQ ID NO: 16; […], top panel; and SEQ ID NO: 17; […]; bottom panel). Also shown is miR-584-5p seed sequence mutated sequences. […] Values were normalized to firefly luciferase, which served as an internal control. The p-values were calculated using standard Student t-tests. Error bars represent mean±SEM. […] The p-values were calculated using standard Student t-tests.

Another series relates to 3′-UTR of eIF4E3. In words: Dual luciferase 3′-UTR reporter assay (eIF4E3). The note with it: miR-584-5p mimic in comparison with scrambled. How it is done: Dual luciferase assay. Wild-type or mutant 3′-UTR segments of the eIF4E3 and HDAC1 gene were cloned downstream of the luciferase gene in pGL3-promoter vector at the SacI and SpeI restriction sites. HEK293 cells were cotransfected with Renilla luciferase vector (pRLnull 380) and firefly luciferase vector containing pGL3-wt-eIF4E3; pGL3-mut-eIF4E3; or pGL3-wt-HDAC1, pGL3-mut-HDAC1, or pGL3 overnight and incubated in fresh complete medium for an additional 48 hours after transfection. Cells were then transfected with miRNA mimic (Invitrogen) for 24 hours. Next, cells were harvested with 1× passive lysis buffer (Promega) and luciferase activity was read using GLOMAX 20/20 luminometer (Promega).
Data are z-transformed. The cutoff criteria for each gene are fold change >2, sample intensity >10, and p-value <0.05. […] To validate the gene expression analysis and target prediction results, it was determined whether miR-584-5p reduced HDAC1/eIF4E3 expression by binding to their 3′-untranslated regions (3′-UTRs). […] Also shown are the portion of the miR-584-5p sequence (SEQ ID NO: 15; UAUGGUU) that binds to the wild-type 3′UTR and seed sequence mutant (SEQ ID NO: 16; […], top panel; and SEQ ID NO: 17; […]; bottom panel). Also shown is miR-584-5p seed sequence mutated sequences. […] The p-values were calculated using standard Student t-tests. […] The p-values were calculated using standard Student t-tests.
A general note: In a reporter assay the amount or activity of a reporter protein is the signal.

“miR-584-5p: microRNA mimic; nucleotide sequence UUAUGGUUUGCCUGGGACUGAG (SEQ ID NO: 1); purchased from Thermofisher (chemistry not given here)”: in the series on c-Myc, the c-Myc levels entry is given as “significantly reduced expression of c-Myc”. Besides, the mitotic cells result in the series on MB cells was “significantly more mitotic cells”. Also, in the series on HDAC1, the “expression of HDAC1” value was “significantly reduced expression”. Further, the TUBB4 expression result in series [1] (confirmed by real-time PCR) is given as “among the highly downregulated genes”. The FOXO1 levels entry in series [1] (miR-584-5p-treated MB cells) was “did not change”. Moreover, in the series on 3′-UTR of eIF4E3, the “luciferase activity, eIF4E3 3′-UTR with mutated miR-584-5p binding sites” value is listed as “no change in luciferase activity” and the “luciferase activity, wild-type eIF4E3 3′-UTR construct” value is “significantly reduced”.
